Experimental data from the supplement of paper PMC10307832.

Experiments:
Experiment in all cases: relative viability (nuclei count vs DMSO), 5 days (fraction); higher = more cells survive
[1] = compound: CS(=O)(=O)c1ccc(-c2cnc(N)c(C(=O)Nc3ccccc3)n2)cc1 [VE-821] + Nc1nc2[nH]cc(CCc3ccc(C(=O)N[C@@H](CCC(=O)O)C(=O)O)cc3)c2c(=O)[nH]1 [Pemetrexed] (partner 0.2 µM)
In short: (§1)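 Lung cancer cell lines were pin-tool dosed in 1536-well plates on the day after seeding, with either a lone drug or a fixed anchor-drug dose plus five library-drug doses (not always all listed) in √10 steps. Nuclei were counted on 4× images after 5 days. Relative viability is the ratio of treated-well to vehicle-well nuclei counts, with each value a median of duplicate plates.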

[2] = compound: CS(=O)(=O)c1ccc(C(=O)Nc2ccc(Cl)c(-c3ccccn3)c2)c(Cl)c1 [Vismodegib] + CC1(C)CCC(c2ccc(Cl)cc2)=C(CN2CCN(c3ccc(C(=O)NS(=O)(=O)c4ccc(N[C@H](CCN5CCOCC5)CSc5ccccc5)c(S(=O)(=O)C(F)(F)F)c4)cc3)CC2)C1 [Navitoclax] (partner 0.5 µM)
In short: as §1

[3] = compound: CS(=O)(=O)c1ccc(C(=O)Nc2ccc(Cl)c(-c3ccccn3)c2)c(Cl)c1 [Vismodegib] + CS(=O)(=O)CCNCc1ccc(-c2ccc3ncnc(Nc4ccc(OCc5cccc(F)c5)c(Cl)c4)c3c2)o1 [Lapatinib] (partner 2 µM)
In short: as §1

[4] = compound: CS(=O)(=O)c1ccc(-c2cnc(N)c(C(=O)Nc3ccccc3)n2)cc1 [VE-821] + Cc1nc(NC(=O)N2CCC[C@H]2C(N)=O)sc1-c1ccnc(C(C)(C)C(F)(F)F)c1 [Alpelisib] (partner 2 µM)
In short: as §1

With UMC-11 the relative viability ([1]; first compound 0.08 µM) was 0.818, the relative viability ([1]; first compound 0.253 µM) was 0.718 and the relative viability ([1]; first compound 0.8 µM) was 0.728. It also gave a relative viability ([1]; first compound 2.53 µM) of 0.513, a relative viability ([1]; first compound 8 µM) of 0.266 and a relative viability ([2]; first compound 0.08 µM) of 0.321. It also gave a relative viability ([2]; first compound 0.253 µM) of 0.313, a relative viability ([2]; first compound 0.8 µM) of 0.296 and a relative viability ([2]; first compound 2.53 µM) of 0.29. It also gave a relative viability ([2]; first compound 8 µM) of 0.305, a relative viability ([3]; first compound 0.08 µM) of 0.915 and a relative viability ([3]; first compound 0.253 µM) of 0.971. It also gave a relative viability ([3]; first compound 0.8 µM) of 0.893, a relative viability ([3]; first compound 2.53 µM) of 0.974 and a relative viability ([3]; first compound 8 µM) of 0.598. It also gave a relative viability ([4]; first compound 0.08 µM) of 1.23, a relative viability ([4]; first compound 0.253 µM) of 0.946 and a relative viability ([4]; first compound 0.8 µM) of 1.03. For the same cell line, the relative viability ([4]; first compound 2.53 µM) was 0.935 and the relative viability ([4]; first compound 8 µM) was 0.437.
